# According to patent publication US20020035061A1, “COMPOSITIONS AND METHODS FOR TREATING INFECTIONS USING CATIONIC PEPTIDES ALONE OR IN COMBINATION WITH ANTIBIOTICS” (priority 1996, published 2002):
# Where “and” joins values, the source holds several entries; their conditions need not be identical. Identical values can stand only once. Like-named read-outs stand apart in the source and are kept apart here.
# Tests used:
# Assay in all cases: microbe, parasite or virus in culture
# Assay type in all cases: cell-based
# [1] = tested on: microorganisms with acquired resistance; conditions: for Peptide MIC: in µg/mL
# [2] = tested on: inherently resistant microorganisms
# bacterial isolates = conditions: for FIC: combination with Ampicillin
# [3] = Staphylococcus aureus, read-out: MIC alone (antibiotic agent), S. aureus
# [4] = Pseudomonas aeruginosa, read-out: MIC alone (antibiotic agent), P. aeruginosa
# [5] = Staphylococcus haemolyticus, read-out: MIC alone (antibiotic agent), S. haemolyticus
# [6] = Acinetobacter calcoaceticus, read-out: Piperacillin MIC Alone, A. calcoaceticus 2
# [7] = Acinetobacter calcoaceticus, read-out: Piperacillin MIC Alone, A. calcoaceticus 7
# [8] = Enterobacter cloacae, read-out: Piperacillin MIC Alone, E. cloacae 9
# [9] = Enterobacter cloacae, read-out: Piperacillin MIC Alone, E. cloacae 10
# [10] = Enterobacter cloacae, read-out: Piperacillin MIC Alone, E. cloacae 13
# [11] = Enterobacter cloacae, read-out: Piperacillin MIC Alone, E. cloacae 16
# [12] = Enterobacter cloacae, read-out: Piperacillin MIC Alone, E. cloacae 17
# [13] = Escherichia coli, read-out: Piperacillin MIC Alone, E. coli 1
# [14] = Haemophilus influenzae, read-out: Piperacillin MIC Alone, H. influenzae 1
# [15] = Pseudomonas aeruginosa, read-out: Piperacillin MIC Alone, P. aeruginosa 7
# [16] = Pseudomonas aeruginosa, read-out: Piperacillin MIC Alone, P. aeruginosa 15
# [17] = Pseudomonas aeruginosa, read-out: Piperacillin MIC Alone, P. aeruginosa 22
# [18] = Serratia marcescens, read-out: Piperacillin MIC Alone, S. marcescens SB1
# [19] = Stenotrophomonas maltophilia, read-out: Piperacillin MIC Alone, S. maltophilia 2
# [20] = Stenotrophomonas maltophilia, read-out: Piperacillin MIC Alone, S. maltophilia 3
# [21] = Stenotrophomonas maltophilia, read-out: Piperacillin MIC Alone, S. maltophilia 11
# [22] = Stenotrophomonas maltophilia, read-out: Piperacillin MIC Alone, S. maltophilia 14
# [23] = Stenotrophomonas maltophilia, read-out: Piperacillin MIC Alone, S. maltophilia 34
# [24] = Stenotrophomonas maltophilia, read-out: Piperacillin MIC Alone, S. maltophilia 35
compound,measurement,setting,value
CC1(C)S[C@@H]2[C@H](NC(=O)[C@H](N)c3ccccc3)C(=O)N2[C@H]1C(=O)O [Ampicillin],MIC comb. (antibiotic agent),"[1]; S. aureus, with MBI 26",0.25 µg/mL
same,MIC comb. (antibiotic agent),"[1]; S. haemolyticus, with MBI 26",0.25 µg/mL
same,MIC,[1]; [3],2 µg/mL
CC(C)(O/N=C(\C(=O)N[C@@H]1C(=O)N2C(C(=O)[O-])=C(C[n+]3ccccc3)CS[C@H]12)c1csc(N)n1)C(=O)O [Ceftazidime],MIC comb. (antibiotic agent),"[1]; A. calcoaceticus, with MBI 26",2 µg/mL
same,MIC comb. (antibiotic agent),"[1]; A. calcoaceticus, with MBI 29",2 µg/mL
same,MIC,"[1]; Acinetobacter calcoaceticus, read-out: MIC alone (antibiotic agent), A. calcoaceticus",32 µg/mL
same,MIC comb. (antibiotic agent),"[1]; P. aeruginosa, with MBI 29",16 µg/mL
same,MIC,[1]; [4],64 µg/mL
CC[C@H]1OC(=O)[C@H](C)[C@@H](O[C@H]2C[C@@](C)(OC)[C@@H](O)[C@H](C)O2)[C@H](C)[C@@H](O[C@@H]2O[C@H](C)C[C@H](N(C)C)[C@H]2O)[C@](C)(O)C[C@@H](C)C(=O)[C@H](C)[C@@H](O)[C@]1(C)O [Erythromycin],MIC,"[2]; Acinetobacter calcoaceticus, read-out: Erythromycin MIC + MBI 26, A. calcoaceticus AC001",1 µg/mL
same,MIC,"[2]; Klebsiella pneumoniae, read-out: Erythromycin MIC + MBI 26, K. pneumoniae KP001",0.25 µg/mL
same,MIC,"[2]; Klebsiella pneumoniae, read-out: Erythromycin MIC + MBI 26, K. pneumoniae KP002",0.5 µg/mL
same,MIC,"[2]; Klebsiella pneumoniae, read-out: Erythromycin MIC Alone, K. pneumoniae KP002",256 µg/mL
same,MIC,"[2]; Pseudomonas aeruginosa, read-out: Erythromycin MIC + MBI 26, P. aeruginosa PA041",4 µg/mL
same,MIC,"[2]; Pseudomonas aeruginosa, read-out: Erythromycin MIC Alone, P. aeruginosa PA041",128 µg/mL
same,MIC,[1]; [3],8 µg/mL
same,MIC,"[1]; Staphylococcus epidermidis, read-out: MIC alone (antibiotic agent), S. epidermidis",8 µg/mL
same,MIC,[1]; [5],8 µg/mL
COc1cccc(OC)c1C(=O)N[C@@H]1C(=O)N2[C@@H]1SC(C)(C)[C@@H]2C(=O)O [Methicillin],MIC comb. (antibiotic agent),"[1]; S. haemolyticus, with MBI 26",0.25 µg/mL
same,MIC,[1]; [5],64 µg/mL
CCN1CCN(C(=O)N[C@@H](C(=O)N[C@@H]2C(=O)N3[C@@H]2SC(C)(C)[C@@H]3C(=O)O)c2ccccc2)C(=O)C1=O [Piperacillin],Piperacillin MIC + Peptide,"[2]; S. aureus MRSA, peptide MBI 11F3CN",4 µg/mL
same,MIC,"[2]; Staphylococcus aureus, MRSA, read-out: Piperacillin MIC + Peptide, S. aureus MRSA, peptide MBI 11B7CN",0.5 µg/mL
same,MIC,"[2]; Staphylococcus aureus, MRSA, read-out: Piperacillin MIC + Peptide, S. aureus MRSA, peptide MBI 11D18CN",2 µg/mL
same,MIC,"[2]; Staphylococcus aureus, MRSA, read-out: Piperacillin MIC + Peptide, S. aureus MRSA, peptide MBI 11E3CN",2 µg/mL
same,MIC,"[2]; Staphylococcus aureus, MRSA, read-out: Piperacillin MIC + Peptide, S. aureus MRSA, peptide MBI 11F3CN",2 µg/mL
same,MIC,"[2]; Staphylococcus aureus, MRSA, read-out: Piperacillin MIC + Peptide, S. aureus MRSA, peptide MBI 11F4CN",4 µg/mL
same,MIC,"[2]; Staphylococcus aureus, MRSA, read-out: Piperacillin MIC + Peptide, S. aureus MRSA, peptide MBI 11G7CN",0.5 µg/mL
same,MIC,"[2]; Staphylococcus aureus, MRSA, read-out: Piperacillin MIC + Peptide, S. aureus MRSA, peptide MBI 21A2",0.5 µg/mL
same,MIC,"[2]; Staphylococcus aureus, MRSA, read-out: Piperacillin MIC + Peptide, S. aureus MRSA, peptide MBI 26",0.5 µg/mL
same,MIC,"[2]; Staphylococcus aureus, MRSA, read-out: Piperacillin MIC + Peptide, S. aureus MRSA, peptide MBI 29",4 µg/mL
same,MIC,"[2]; Staphylococcus aureus, MRSA, read-out: Piperacillin MIC Alone, S. aureus MRSA",128 µg/mL
same,MIC,[1]; [6],> 512 µg/mL
same,MIC,[1]; [7],32 µg/mL
same,MIC,[1]; [8],> 128 µg/mL
same,MIC,[1]; [9],> 128 µg/mL
same,MIC,[1]; [10],128 µg/mL
same,MIC,[1]; [11],> 512 µg/mL
same,MIC,[1]; [12],> 512 µg/mL
same,MIC,"[1]; Enterobacter cloacae, read-out: Piperacillin MIC Alone, E. cloacae 19",64 µg/mL
same,MIC,[1]; [13],> 128 µg/mL
same,Piperacillin MIC Alone,[1]; H. influenzae 1,32 µg/mL
same,MIC,[1]; [14],64 µg/mL
same,Piperacillin MIC Alone,[1]; P. aeruginosa 7,>128 µg/mL
same,Piperacillin MIC Alone,[1]; P. aeruginosa 23,>128 µg/mL and 256 µg/mL
same,MIC comb. (antibiotic agent),"[1]; P. aeruginosa, with MBI 27",64 µg/mL
same,MIC comb. (antibiotic agent),"[1]; P. aeruginosa, with MBI 29",64 µg/mL
same,MIC,[1]; [4],128 µg/mL
same,MIC,[1]; [15],128 µg/mL
same,MIC,"[1]; Pseudomonas aeruginosa, read-out: Piperacillin MIC Alone, P. aeruginosa 12",> 128 µg/mL
same,MIC,[1]; [16],> 128 µg/mL
same,MIC,[1]; [17],> 128 µg/mL
same,MIC,"[1]; Pseudomonas aeruginosa, read-out: Piperacillin MIC Alone, P. aeruginosa 23",128 µg/mL
same,MIC,"[1]; Pseudomonas aeruginosa, read-out: Piperacillin MIC Alone, P. aeruginosa 24",> 512 µg/mL
same,MIC,"[1]; Pseudomonas aeruginosa, read-out: Piperacillin MIC Alone, P. aeruginosa 26",128 µg/mL
same,MIC comb. (antibiotic agent),"[1]; S. aureus, with MBI 27",64 µg/mL
same,Piperacillin MIC Alone,[1]; S. maltophilia 2,64 µg/mL
same,Piperacillin MIC Alone,[1]; S. maltophilia 4,128 µg/mL
same,Piperacillin MIC Alone,[1]; S. maltophilia 35,>512 µg/mL
same,MIC comb. (antibiotic agent),"[1]; S. maltophilia, with MBI 26",16 µg/mL
same,MIC,[1]; [18],64 µg/mL
same,MIC,[1]; [3],128 µg/mL
same,MIC,"[1]; Stenotrophomonas maltophilia, read-out: MIC alone (antibiotic agent), S. maltophilia",> 512 µg/mL
same,MIC,[1]; [19],32 µg/mL
same,MIC,[1]; [20],64 µg/mL
same,MIC,"[1]; Stenotrophomonas maltophilia, read-out: Piperacillin MIC Alone, S. maltophilia 4",64 µg/mL
same,MIC,[1]; [21],32 µg/mL
same,MIC,[1]; [22],128 µg/mL
same,MIC,[1]; [23],> 512 µg/mL
same,MIC,[1]; [24],> 256 µg/mL
same,MIC,"[1]; Stenotrophomonas maltophilia, read-out: Piperacillin MIC Alone, S. maltophilia 41",> 512 µg/mL
same,Piperacillin MIC Alone,bacterial isolates; A. calcoaceticus 3,128 µg/mL
same,MIC,bacterial isolates; [6],> 512 µg/mL
same,MIC,"bacterial isolates; Acinetobacter calcoaceticus, read-out: Piperacillin MIC Alone, A. calcoaceticus 3",64 µg/mL
same,MIC,bacterial isolates; [7],32 µg/mL
same,MIC,"bacterial isolates; Acinetobacter calcoaceticus, read-out: Piperacillin MIC Alone, A. calcoaceticus 8",64 µg/mL
same,MIC,"bacterial isolates; Enterobacter cloacae, read-out: Piperacillin MIC Alone, E. cloacae 6",> 128 µg/mL
same,MIC,bacterial isolates; [8],> 128 µg/mL
same,MIC,bacterial isolates; [9],> 128 µg/mL
same,MIC,bacterial isolates; [10],128 µg/mL
same,MIC,bacterial isolates; [11],> 512 µg/mL
same,MIC,bacterial isolates; [12],> 512 µg/mL
same,MIC,bacterial isolates; [13],> 128 µg/mL
same,Piperacillin MIC Alone,bacterial isolates; H. influenzae 1,32 µg/mL
same,MIC,bacterial isolates; [14],64 µg/mL
same,MIC,"bacterial isolates; Haemophilus influenzae, read-out: Piperacillin MIC Alone, H. influenzae 3",0.5 µg/mL
same,MIC,"bacterial isolates; Haemophilus influenzae, read-out: Piperacillin MIC Alone, H. influenzae SB1",0.5 µg/mL
same,Piperacillin MIC Alone,bacterial isolates; P. aeruginosa 7,128 µg/mL
same,Piperacillin MIC Alone,bacterial isolates; P. aeruginosa 41,32 µg/mL
same,MIC,bacterial isolates; [15],> 128 µg/mL
same,MIC,bacterial isolates; [16],> 128 µg/mL
same,MIC,bacterial isolates; [17],> 128 µg/mL
same,MIC,"bacterial isolates; Pseudomonas aeruginosa, read-out: Piperacillin MIC Alone, P. aeruginosa 28",> 512 µg/mL
same,MIC,"bacterial isolates; Pseudomonas aeruginosa, read-out: Piperacillin MIC Alone, P. aeruginosa 29",512 µg/mL
same,MIC,"bacterial isolates; Pseudomonas aeruginosa, read-out: Piperacillin MIC Alone, P. aeruginosa 32",64 µg/mL
same,MIC,"bacterial isolates; Pseudomonas aeruginosa, read-out: Piperacillin MIC Alone, P. aeruginosa 41",64 µg/mL
same,Piperacillin MIC Alone,bacterial isolates; S. aureus 19 MRSA,>128 µg/mL
same,Piperacillin MIC Alone,bacterial isolates; S. aureus SB3MRSA,128 µg/mL
same,MIC,bacterial isolates; [18],64 µg/mL
same,MIC,"bacterial isolates; Staphylococcus aureus, MRSA, read-out: Piperacillin MIC Alone, S. aureus 11 MRSA",> 128 µg/mL
same,MIC,"bacterial isolates; Staphylococcus aureus, MRSA, read-out: Piperacillin MIC Alone, S. aureus 18 MRSA",> 128 µg/mL
same,MIC,"bacterial isolates; Staphylococcus aureus, MRSA, read-out: Piperacillin MIC Alone, S. aureus 19 MRSA",128 µg/mL
same,MIC,"bacterial isolates; Staphylococcus aureus, read-out: Piperacillin MIC Alone, S. aureus SB2MRSA",128 µg/mL
same,MIC,"bacterial isolates; Staphylococcus aureus, read-out: Piperacillin MIC Alone, S. aureus SB3MRSA",> 128 µg/mL
same,MIC,bacterial isolates; [19],64 µg/mL
same,MIC,bacterial isolates; [20],128 µg/mL
same,MIC,"bacterial isolates; Stenotrophomonas maltophilia, read-out: Piperacillin MIC Alone, S. maltophilia 5",> 128 µg/mL
same,MIC,"bacterial isolates; Stenotrophomonas maltophilia, read-out: Piperacillin MIC Alone, S. maltophilia 6",> 128 µg/mL
same,MIC,"bacterial isolates; Stenotrophomonas maltophilia, read-out: Piperacillin MIC Alone, S. maltophilia 9",> 128 µg/mL
same,MIC,bacterial isolates; [21],> 128 µg/mL
same,MIC,"bacterial isolates; Stenotrophomonas maltophilia, read-out: Piperacillin MIC Alone, S. maltophilia 13",> 128 µg/mL
same,MIC,bacterial isolates; [22],128 µg/mL
same,MIC,bacterial isolates; [23],> 512 µg/mL
same,MIC,bacterial isolates; [24],> 256 µg/mL
same,MIC,"bacterial isolates; Stenotrophomonas maltophilia, read-out: Piperacillin MIC Alone, S. maltophilia 38",> 512 µg/mL
same,MIC,"bacterial isolates; Stenotrophomonas maltophilia, read-out: Piperacillin MIC Alone, S. maltophilia 40",> 512 µg/mL
same,MIC,"bacterial isolates; Stenotrophomonas maltophilia, read-out: Piperacillin MIC Alone, S. maltophilia 42",> 512 µg/mL
GKPRPYSPIPTSPRPIRY [MBI 31],Peptide MIC,"[1]; S. aureus, combination with Erythromycin",0.125
same,FIC,bacterial isolates; S. epidermidis SE8416,0.52
same,FIC,bacterial isolates; S. epidermidis SH8575,0.27
same,FIC,bacterial isolates; S. haemolyticus SA7797,0.50
same,FIC,bacterial isolates; S. haemolyticus SA7817,0.26
same,FIC,bacterial isolates; S. haemolyticus SA7818,0.52
same,FIC,bacterial isolates; S. haemolyticus SA7834,0.52
same,FIC,bacterial isolates; S. haemolyticus SA7835,0.50
same,FIC,bacterial isolates; S. haemolyticus SH8597,1.00
KKWWRRVLKGLSSGPALSNV [MBI 21A10],Peptide MIC,"[1]; S. aureus, combination with Mupirocin",32
